Data taken from patent publication US20220031800A1, “PEPTIDES FOR TREATING NON-EXUDATIVE MACULAR DEGENERATION AND OTHER DISORDERS OF THE EYE” (Allegro Pharmaceuticals, LLC, priority 2019, published 2022).
Square brackets hold non-standard residues; d marks the D form. Peptide text beside a SMILES is read from it. Cya = N[C@@H](CS(=O)(=O)O)C(=O)O

Test system: study eye of subjects with intermediate non-exudative AMD
Assay: SD-OCT Analysis 1 (thickness and volume of retinal layers, EZ defect area, GA)
Format: in vivo, human
Procedure: Numerous study assessments were conducted at various time points throughout the study. Included among these study assessments were; refractive eye examinations, determinations of BCVA AND low-luminance BCVA, Lanthony D-15 color vision test, measurement of intraocular pressure (IOP), Indirect ophthalmoscopy/dilated fundus examinations and spectral-domain optical coherence tomography (SD-OCT). Also, blood and saliva samples were obtained from each subject for genetic analysis. The above-listed study assessments were performed at the time points indicated in Table 1, below: The OCT scans were analyzed by two (2) unrelated experts. The mean thickness and mean volume of retinal subfields and layer segments were analyzed at screening (pre-treatment) and at Week 12 for Group 1 subjects and at Week 32 for Group 2 subjects. In addition to the quantitative analysis of OCT images, a qualitative assessment of the OCT images at baseline (pre-treatment) was performed to identify GA anywhere in the retina, in the fovea (1-mm central subfield), and in the foveal center. Quantitative analysis of the OCT images was also performed to measure changes in anatomical measurements over time.

[1] = baseline to Week 32, nonresponder eyes n = 12
[2] = baseline to Week 32, responder eyes n = 10
[3] = baseline to Week 32, responder vs nonresponder eyes
[4] = baseline to Week 32, risuteganib arm n = 22
[5] = risuteganib arm (Week 32) vs sham arm (Week 12)

With C[C@@H](O)[C@H](NC(=O)[C@H](CS(=O)(=O)O)NC(=O)CNC(=O)[C@H](CCCNC(=N)N)NC(=O)CN)C(=O)N1CCC[C@H]1C(=O)O [risuteganib, Glycyl-L-arginylglycyl-3-sulfo-L-alanyl-L-threonyl-L-proline] (H-GRG[Cya]TP-OH) the “Change in EZ defect area” value [1] was 0.014 mm^2, the “Mean change in mean thickness: Inner retina, central subfield” value [1] was −2.250 μm and the “Mean change in mean thickness: Inner retina, foveal center” value [1] was 9.917 μm. For the same compound, the “Mean change in mean thickness: Outer retina, central subfield” value [1] was −5.417 μm, the “Mean change in mean thickness: Outer retina, foveal center” value [1] was −17.833 μm and the “Mean change in mean thickness: Photoreceptor, central subfield” value [1] was −1.333 μm. For the same compound, the “Mean change in mean thickness: Photoreceptor, foveal center” value [1] was 3.833 μm, the “Mean change in mean thickness: RPEDC, central subfield” value [1] was 1.083 μm and the “Mean change in mean thickness: RPEDC, foveal center” value [1] was −2.250 μm. The “Mean change in total volume: Inner retina, central subfield” value [1] was −0.002 mm^3, the “Mean change in total volume: Outer retina, central subfield” value [1] was −0.004 mm^3 and the “Mean change in total volume: Photoreceptor, central subfield” value [1] was −0.001 mm^3. The “Mean change in total volume: RPEDC, central subfield” value [1] was 0.001 mm^3, the “Change in EZ defect area” value [2] was 0.020 mm^2 and the “Mean change in mean thickness: Inner retina, central subfield” value [2] was 5.200 μm. The “Mean change in mean thickness: Inner retina, foveal center” value [2] was 8.400 μm, the “Mean change in mean thickness: Outer retina, central subfield” value [2] was −2.400 μm and the “Mean change in mean thickness: Outer retina, foveal center” value [2] was −8.000 μm. For the same compound, the “Mean change in mean thickness: Photoreceptor, central subfield” value [2] was −1.000 μm, the “Mean change in mean thickness: Photoreceptor, foveal center” value [2] was 3.100 μm and the “Mean change in mean thickness: RPEDC, central subfield” value [2] was −9.800 μm. For the same compound, the “Mean change in mean thickness: RPEDC, foveal center” value [2] was −8.100 μm, the “Mean change in total volume: Inner retina, central subfield” value [2] was 0.004 mm^3 and the “Mean change in total volume: Outer retina, central subfield” value [2] was −0.002 mm^3. The “Mean change in total volume: Photoreceptor, central subfield” value [2] was −0.001 mm^3, the “Mean change in total volume: RPEDC, central subfield” value [2] was −0.008 mm^3 and the “Change in EZ defect area, Difference” value [3] was 0.006 mm^2. For the same compound, the “Mean change in mean thickness: Inner retina, central subfield, Difference” value [3] was 7.450 μm, the “Mean change in mean thickness: Inner retina, foveal center, Difference” value [3] was −1.517 μm and the “Mean change in mean thickness: Outer retina, central subfield, Difference” value [3] was 3.017 μm. The “Mean change in mean thickness: Outer retina, foveal center, Difference” value [3] was 9.833 μm, the “Mean change in mean thickness: Photoreceptor, central subfield, Difference” value [3] was 0.333 μm and the “Mean change in mean thickness: Photoreceptor, foveal center, Difference” value [3] was −0.733 μm. For the same compound, the “Mean change in mean thickness: RPEDC, central subfield, Difference” value [3] was −10.883 μm, the “Mean change in mean thickness: RPEDC, foveal center, Difference” value [3] was −5.850 μm and the “Mean change in total volume: Inner retina, central subfield, Difference” value [3] was 0.006 mm^3. The “Mean change in total volume: Outer retina, central subfield, Difference” value [3] was 0.003 mm^3, the “Mean change in total volume: Photoreceptor, central subfield, Difference” value [3] was 0.000 mm^3 and the “Mean change in total volume: RPEDC, central subfield, Difference” value [3] was −0.009 mm^3. The “Change in EZ defect area” value [4] was 0.015 mm^2, the “Mean change in mean thickness: Inner retina, central subfield” value [4] was 1.565 μm and the “Mean change in mean thickness: Inner retina, foveal center” value [4] was 6.696 μm. For the same compound, the “Mean change in mean thickness: Inner retina, inferior subfield” value [4] was −0.065 μm, the “Mean change in mean thickness: Inner retina, nasal subfield” value [4] was −0.783 μm and the “Mean change in mean thickness: Inner retina, superior subfield” value [4] was −3.022 μm. For the same compound, the “Mean change in mean thickness: Inner retina, temporal subfield” value [4] was 0.217 μm, the “Mean change in mean thickness: Outer retina, central subfield” value [4] was −3.978 μm and the “Mean change in mean thickness: Outer retina, foveal center” value [4] was −9.543 μm. The “Mean change in mean thickness: Outer retina, inferior subfield” value [4] was −2.457 μm, the “Mean change in mean thickness: Outer retina, nasal subfield” value [4] was −1.196 μm and the “Mean change in mean thickness: Outer retina, superior subfield” value [4] was −0.065 μm. For the same compound, the “Mean change in mean thickness: Outer retina, temporal subfield” value [4] was −2.283 μm, the “Mean change in mean thickness: Photoreceptor, central subfield” value [4] was −1.087 μm and the “Mean change in mean thickness: Photoreceptor, foveal center” value [4] was 1.717 μm. For the same compound, the “Mean change in mean thickness: Photoreceptor, inferior subfield” value [4] was −0.239 μm, the “Mean change in mean thickness: Photoreceptor, nasal subfield” value [4] was −0.087 μm and the “Mean change in mean thickness: Photoreceptor, superior subfield” value [4] was 0.130 μm. The “Mean change in mean thickness: Photoreceptor, temporal subfield” value [4] was −0.152 μm, the “Mean change in mean thickness: RPEDC, central subfield” value [4] was −1.500 μm and the “Mean change in mean thickness: RPEDC, foveal center” value [4] was −1.652 μm. For the same compound, the “Mean change in mean thickness: RPEDC, inferior subfield” value [4] was 0.457 μm, the “Mean change in mean thickness: RPEDC, nasal subfield” value [4] was 0.739 μm and the “Mean change in mean thickness: RPEDC, superior subfield” value [4] was 1.739 μm. The “Mean change in mean thickness: RPEDC, temporal subfield” value [4] was 0.870 μm, the “Mean change in total volume: Inner retina, central subfield” value [4] was 0.001 mm^3 and the “Mean change in total volume: Inner retina, inferior subfield” value [4] was 0.000 mm^3. For the same compound, the “Mean change in total volume: Inner retina, nasal subfield” value [4] was −0.001 mm^3, the “Mean change in total volume: Inner retina, superior subfield” value [4] was −0.005 mm^3 and the “Mean change in total volume: Inner retina, temporal subfield” value [4] was 0.000 mm^3. For the same compound, the “Mean change in total volume: Outer retina, central subfield” value [4] was −0.003 mm^3, the “Mean change in total volume: Outer retina, inferior subfield” value [4] was −0.004 mm^3 and the “Mean change in total volume: Outer retina, nasal subfield” value [4] was −0.002 mm^3. The “Mean change in total volume: Outer retina, superior subfield” value [4] was −0.000 mm^3, the “Mean change in total volume: Outer retina, temporal subfield” value [4] was −0.004 mm^3 and the “Mean change in total volume: Photoreceptor, central subfield” value [4] was −0.001 mm^3. For the same compound, the “Mean change in total volume: Photoreceptor, inferior subfield” value [4] was −0.001 mm^3, the “Mean change in total volume: Photoreceptor, nasal subfield” value [4] was −0.000 mm^3 and the “Mean change in total volume: Photoreceptor, superior subfield” value [4] was 0.000 mm^3. For the same compound, the “Mean change in total volume: Photoreceptor, temporal subfield” value [4] was −0.000 mm^3, the “Mean change in total volume: RPEDC, central subfield” value [4] was −0.001 mm^3 and the “Mean change in total volume: RPEDC, inferior subfield” value [4] was 0.001 mm^3. The “Mean change in total volume: RPEDC, nasal subfield” value [4] was 0.001 mm^3, the “Mean change in total volume: RPEDC, superior subfield” value [4] was 0.003 mm^3 and the “Mean change in total volume: RPEDC, temporal subfield” value [4] was 0.001 mm^3. The “Change in EZ defect area, Difference” value [5] was 0.025 mm^2, the “Mean change in mean thickness: Inner retina, central subfield, Difference” value [5] was 0.690 μm and the “Mean change in mean thickness: Inner retina, foveal center, Difference” value [5] was 15.404 μm. The “Mean change in mean thickness: Inner retina, inferior subfield, Difference” value [5] was −1.607 μm, the “Mean change in mean thickness: Inner retina, nasal subfield, Difference” value [5] was −0.949 μm and the “Mean change in mean thickness: Inner retina, superior subfield, Difference” value [5] was −4.188 μm. For the same compound, the “Mean change in mean thickness: Inner retina, temporal subfield, Difference” value [5] was 0.092 μm, the “Mean change in mean thickness: Outer retina, central subfield, Difference” value [5] was −3.812 μm and the “Mean change in mean thickness: Outer retina, foveal center, Difference” value [5] was −14.794 μm. The “Mean change in mean thickness: Outer retina, inferior subfield, Difference” value [5] was 0.460 μm, the “Mean change in mean thickness: Outer retina, nasal subfield, Difference” value [5] was 1.388 μm and the “Mean change in mean thickness: Outer retina, superior subfield, Difference” value [5] was 0.768 μm. The “Mean change in mean thickness: Outer retina, temporal subfield, Difference” value [5] was −1.158 μm, the “Mean change in mean thickness: Photoreceptor, central subfield, Difference” value [5] was −2.545 μm and the “Mean change in mean thickness: Photoreceptor, foveal center, Difference” value [5] was 1.342 μm. For the same compound, the “Mean change in mean thickness: Photoreceptor, inferior subfield, Difference” value [5] was −0.781 μm, the “Mean change in mean thickness: Photoreceptor, nasal subfield, Difference” value [5] was −0.379 μm and the “Mean change in mean thickness: Photoreceptor, superior subfield, Difference” value [5] was −0.161 μm. For the same compound, the “Mean change in mean thickness: Photoreceptor, temporal subfield, Difference” value [5] was −0.694 μm, the “Mean change in mean thickness: RPEDC, central subfield, Difference” value [5] was −0.167 μm and the “Mean change in mean thickness: RPEDC, foveal center, Difference” value [5] was −1.402 μm. The “Mean change in mean thickness: RPEDC, inferior subfield, Difference” value [5] was 1.623 μm, the “Mean change in mean thickness: RPEDC, nasal subfield, Difference” value [5] was −0.511 μm and the “Mean change in mean thickness: RPEDC, superior subfield, Difference” value [5] was 2.739 μm. For the same compound, the “Mean change in mean thickness: RPEDC, temporal subfield, Difference” value [5] was 2.536 μm, the “Mean change in total volume: Inner retina, central subfield, Difference” value [5] was 0.001 mm^3 and the “Mean change in total volume: Inner retina, inferior subfield, Difference” value [5] was −0.002 mm^3. The “Mean change in total volume: Inner retina, nasal subfield, Difference” value [5] was −0.002 mm^3, the “Mean change in total volume: Inner retina, superior subfield, Difference” value [5] was −0.007 mm^3 and the “Mean change in total volume: Inner retina, temporal subfield, Difference” value [5] was 0.000 mm^3. For the same compound, the “Mean change in total volume: Outer retina, central subfield, Difference” value [5] was −0.003 mm^3, the “Mean change in total volume: Outer retina, inferior subfield, Difference” value [5] was 0.001 mm^3 and the “Mean change in total volume: Outer retina, nasal subfield, Difference” value [5] was 0.002 mm^3. The “Mean change in total volume: Outer retina, superior subfield, Difference” value [5] was 0.001 mm^3, the “Mean change in total volume: Outer retina, temporal subfield, Difference” value [5] was −0.002 mm^3 and the “Mean change in total volume: Photoreceptor, central subfield, Difference” value [5] was −0.002 mm^3. For the same compound, the “Mean change in total volume: Photoreceptor, inferior subfield, Difference” value [5] was −0.002 mm^3, the “Mean change in total volume: Photoreceptor, nasal subfield, Difference” value [5] was −0.001 mm^3 and the “Mean change in total volume: Photoreceptor, superior subfield, Difference” value [5] was −0.000 mm^3. For the same compound, the “Mean change in total volume: Photoreceptor, temporal subfield, Difference” value [5] was −0.001 mm^3, the “Mean change in total volume: RPEDC, central subfield, Difference” value [5] was −0.000 mm^3 and the “Mean change in total volume: RPEDC, inferior subfield, Difference” value [5] was 0.002 mm^3. For the same compound, the “Mean change in total volume: RPEDC, nasal subfield, Difference” value [5] was −0.001 mm^3, the “Mean change in total volume: RPEDC, superior subfield, Difference” value [5] was 0.005 mm^3 and the “Mean change in total volume: RPEDC, temporal subfield, Difference” value [5] was 0.004 mm^3.
